In the supplement of paper PMC10307832:

Experiments:
Experiment in all cases: relative viability (nuclei count vs DMSO), 5 days (fraction); higher = more cells survive
[1] = compound: CC1=NN=C(O1)C2=NN=C(C=C2)N3CCC(CC3)OC4=C(C=CC(=C4)F)Cl + Cc1cc(Nc2cc(N3CCN(C)CC3)nc(Sc3ccc(NC(=O)C4CC4)cc3)n2)n[nH]1 [Tozasertib] (partner 0.1 µM)
Outline: (§1)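 Lung cancer cell lines in 1536-well plates were dosed by pin tool the day after seeding, either with one drug alone or with a fixed anchor-drug dose plus five library-drug doses (not always all listed) in √10 steps. After 5 days, cells were fixed and their nuclei stained in one step (final 0.05% Triton X-100, 1% formaldehyde, 1 ug/ml Hoechst), then counted on 4× images. Relative viability is the nuclei count in treated wells divided by that in vehicle wells. Values are medians of duplicate plates.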

[2] = compound: CC1=NN=C(O1)C2=NN=C(C=C2)N3CCC(CC3)OC4=C(C=CC(=C4)F)Cl + CCNC(=O)c1noc(-c2cc(C(C)C)c(O)cc2O)c1-c1ccc(CN2CCOCC2)cc1 [Luminespib] (partner 0.01 µM)
Outline: as §1

Tosedostat + Vorinostat = compound: CC(C)C[C@@H](C(=O)N[C@H](C(=O)OC1CCCC1)c1ccccc1)[C@H](O)C(=O)NO [Tosedostat] + O=C(CCCCCCC(=O)Nc1ccccc1)NO [Vorinostat] (partner 1 µM)
Outline: as §1

[3] = compound: CC1=NN=C(O1)C2=NN=C(C=C2)N3CCC(CC3)OC4=C(C=CC(=C4)F)Cl + O=C(c1cc(Cc2n[nH]c(=O)c3ccccc23)ccc1F)N1CCN(C(=O)C2CC2)CC1 [Olaparib] (partner 8 µM)
Outline: as §1

| Cell Line | relative viability ([1]; first compound 0.253 µM) | relative viability ([1]; first compound 0.8 µM) | relative viability ([1]; first compound 2.53 µM) | relative viability ([1]; first compound 8 µM) | relative viability ([2]; first compound 0.253 µM) | relative viability ([2]; first compound 0.8 µM) | relative viability ([2]; first compound 2.53 µM) | relative viability ([2]; first compound 8 µM) | relative viability (Tosedostat + Vorinostat; first compound 0.02 µM) | relative viability (Tosedostat + Vorinostat; first compound 0.06325 µM) | relative viability (Tosedostat + Vorinostat; first compound 0.2 µM) | relative viability (Tosedostat + Vorinostat; first compound 0.6325 µM) | relative viability (Tosedostat + Vorinostat; first compound 2 µM) | relative viability ([3]; first compound 0.253 µM) | relative viability ([3]; first compound 0.8 µM) | relative viability ([3]; first compound 2.53 µM) | relative viability ([3]; first compound 8 µM) |
| --- | --- | --- | --- | --- | --- | --- | --- | --- | --- | --- | --- | --- | --- | --- | --- | --- | --- |
| NCI-H522 | 0.576 | 0.578 | 0.558 | 0.534 | 1.2 | 0.989 | 1.15 | 1.22 | 1.12 | 0.897 | 0.954 | 0.918 | 0.916 | 0.694 | 0.566 | 0.664 | 0.686 |
| HCC-15 | 0.281 | 0.29 | 0.274 | 0.278 | 0.342 | 0.303 | 0.294 | 0.286 | 0.941 | 0.849 | 0.826 | 0.757 | 0.745 | 0.354 | 0.305 | 0.348 | 0.337 |
| A-427 | 0.23 |  | 0.168 | 0.168 | 0.882 |  | 0.708 | 0.732 | 0.893 | 0.893 | 0.85 | 0.853 | 0.801 | 0.527 | 0.634 | 0.744 | 0.669 |
| NCI-H3122 | 0.151 | 0.137 | 0.144 | 0.155 | 0.0576 | 0.108 | 0.0895 | 0.0702 | 1.02 | 1.06 | 1.46 | 0.879 | 0.954 | 0.283 | 0.273 | 0.336 | 0.293 |
| NCI-H1915 | 0.265 | 0.222 | 0.222 | 0.192 | 0.615 | 0.393 | 0.503 | 0.312 | 0.51 | 0.457 | 0.516 | 0.503 | 0.527 | 0.202 | 0.17 | 0.184 | 0.162 |
| NCI-H1355 | 0.496 | 0.344 | 0.402 | 0.365 | 0.538 | 0.582 | 0.601 | 0.623 | 0.654 | 0.631 | 0.705 | 0.543 | 0.604 | 0.378 | 0.422 | 0.75 | 0.596 |
| NCI-H2023 | 0.301 | 0.216 | 0.205 | 0.147 | 0.376 | 0.389 | 0.336 | 0.253 | 0.641 | 0.547 | 0.62 | 0.358 | 0.501 | 0.311 | 0.274 | 0.307 | 0.235 |
| NCI-H1755 | 0.425 | 0.45 | 0.467 | 0.405 | 0.376 | 0.337 | 0.354 | 0.418 | 0.912 | 0.795 | 0.732 | 0.768 | 0.637 | 0.65 | 0.616 | 0.657 | 0.562 |
| HCC-366 | 0.076 | 0.0654 | 0.0544 | 0.0419 |  |  |  |  | 0.426 | 0.305 | 0.394 | 0.386 | 0.352 | 0.117 | 0.139 | 0.258 | 0.157 |
| SK-MES-1 | 0.633 | 0.641 | 0.551 | 0.521 | 0.726 | 0.725 | 0.631 | 0.547 | 1.13 | 1.03 | 0.963 | 1.1 | 1 | 0.497 | 0.507 | 0.538 | 0.507 |
